Among the data in publication PMC10004634 (PLOS ONE, 2023) are remaining binding values, retold here.

Where two headings read alike, the source gives them in different places.

Holding throughout (assay): biochemical
Holding throughout (design): KINOMEscan scanMAX competition binding, DNA-tagged kinases, qPCR read-out, percent control at 300 nM
On the technique in general: Quantitative PCR measures a nucleic acid by following its amplification.

The target in test [1] is T1, JNK1 (Homo sapiens, UniProt P45983).
T1 construct: gene MAPK8
T1 sequence (P45983 whole entry): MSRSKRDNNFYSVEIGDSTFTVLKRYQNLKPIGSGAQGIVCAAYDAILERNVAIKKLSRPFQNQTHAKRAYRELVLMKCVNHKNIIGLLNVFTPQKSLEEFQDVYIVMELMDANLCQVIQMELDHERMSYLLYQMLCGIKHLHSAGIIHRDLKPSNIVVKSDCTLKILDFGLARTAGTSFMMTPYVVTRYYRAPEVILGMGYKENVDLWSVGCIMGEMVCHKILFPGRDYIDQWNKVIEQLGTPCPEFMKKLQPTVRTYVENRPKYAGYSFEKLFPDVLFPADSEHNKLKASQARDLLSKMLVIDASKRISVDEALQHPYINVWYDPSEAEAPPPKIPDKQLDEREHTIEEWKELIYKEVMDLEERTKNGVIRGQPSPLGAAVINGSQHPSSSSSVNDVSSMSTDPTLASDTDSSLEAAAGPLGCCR

Test [2] deals with AAK1 (Homo sapiens, UniProt Q2M2I8).
The target in test [3] is EPHA4 (Homo sapiens, UniProt P54764).
EPHA4, sequence (P54764 whole entry): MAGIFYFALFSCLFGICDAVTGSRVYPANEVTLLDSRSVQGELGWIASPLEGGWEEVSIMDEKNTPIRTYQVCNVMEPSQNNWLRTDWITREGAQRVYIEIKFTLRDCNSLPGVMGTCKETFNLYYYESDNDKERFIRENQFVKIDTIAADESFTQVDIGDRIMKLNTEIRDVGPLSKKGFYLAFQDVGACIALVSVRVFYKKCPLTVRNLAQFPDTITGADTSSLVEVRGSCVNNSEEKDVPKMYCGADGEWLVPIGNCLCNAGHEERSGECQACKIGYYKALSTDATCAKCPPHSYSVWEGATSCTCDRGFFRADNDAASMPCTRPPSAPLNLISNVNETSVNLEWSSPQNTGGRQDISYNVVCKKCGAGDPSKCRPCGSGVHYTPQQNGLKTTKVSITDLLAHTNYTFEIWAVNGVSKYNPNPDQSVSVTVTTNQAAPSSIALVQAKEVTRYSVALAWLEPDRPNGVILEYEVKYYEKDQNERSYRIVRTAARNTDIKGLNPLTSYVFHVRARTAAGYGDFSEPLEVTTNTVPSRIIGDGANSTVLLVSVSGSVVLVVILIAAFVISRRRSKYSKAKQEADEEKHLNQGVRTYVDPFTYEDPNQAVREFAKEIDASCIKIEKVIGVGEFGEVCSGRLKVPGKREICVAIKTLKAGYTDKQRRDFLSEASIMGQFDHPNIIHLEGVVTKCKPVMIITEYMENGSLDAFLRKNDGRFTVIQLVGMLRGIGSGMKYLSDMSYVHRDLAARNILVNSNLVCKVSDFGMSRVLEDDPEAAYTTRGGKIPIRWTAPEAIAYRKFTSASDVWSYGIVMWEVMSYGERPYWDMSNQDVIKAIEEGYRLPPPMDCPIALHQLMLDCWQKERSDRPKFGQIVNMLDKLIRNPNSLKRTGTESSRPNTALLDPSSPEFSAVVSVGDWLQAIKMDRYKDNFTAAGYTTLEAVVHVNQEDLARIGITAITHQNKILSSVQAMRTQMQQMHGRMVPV
In test [4] the target is ROCK2 (Homo sapiens, UniProt O75116).
ROCK2, sequence (O75116 whole entry): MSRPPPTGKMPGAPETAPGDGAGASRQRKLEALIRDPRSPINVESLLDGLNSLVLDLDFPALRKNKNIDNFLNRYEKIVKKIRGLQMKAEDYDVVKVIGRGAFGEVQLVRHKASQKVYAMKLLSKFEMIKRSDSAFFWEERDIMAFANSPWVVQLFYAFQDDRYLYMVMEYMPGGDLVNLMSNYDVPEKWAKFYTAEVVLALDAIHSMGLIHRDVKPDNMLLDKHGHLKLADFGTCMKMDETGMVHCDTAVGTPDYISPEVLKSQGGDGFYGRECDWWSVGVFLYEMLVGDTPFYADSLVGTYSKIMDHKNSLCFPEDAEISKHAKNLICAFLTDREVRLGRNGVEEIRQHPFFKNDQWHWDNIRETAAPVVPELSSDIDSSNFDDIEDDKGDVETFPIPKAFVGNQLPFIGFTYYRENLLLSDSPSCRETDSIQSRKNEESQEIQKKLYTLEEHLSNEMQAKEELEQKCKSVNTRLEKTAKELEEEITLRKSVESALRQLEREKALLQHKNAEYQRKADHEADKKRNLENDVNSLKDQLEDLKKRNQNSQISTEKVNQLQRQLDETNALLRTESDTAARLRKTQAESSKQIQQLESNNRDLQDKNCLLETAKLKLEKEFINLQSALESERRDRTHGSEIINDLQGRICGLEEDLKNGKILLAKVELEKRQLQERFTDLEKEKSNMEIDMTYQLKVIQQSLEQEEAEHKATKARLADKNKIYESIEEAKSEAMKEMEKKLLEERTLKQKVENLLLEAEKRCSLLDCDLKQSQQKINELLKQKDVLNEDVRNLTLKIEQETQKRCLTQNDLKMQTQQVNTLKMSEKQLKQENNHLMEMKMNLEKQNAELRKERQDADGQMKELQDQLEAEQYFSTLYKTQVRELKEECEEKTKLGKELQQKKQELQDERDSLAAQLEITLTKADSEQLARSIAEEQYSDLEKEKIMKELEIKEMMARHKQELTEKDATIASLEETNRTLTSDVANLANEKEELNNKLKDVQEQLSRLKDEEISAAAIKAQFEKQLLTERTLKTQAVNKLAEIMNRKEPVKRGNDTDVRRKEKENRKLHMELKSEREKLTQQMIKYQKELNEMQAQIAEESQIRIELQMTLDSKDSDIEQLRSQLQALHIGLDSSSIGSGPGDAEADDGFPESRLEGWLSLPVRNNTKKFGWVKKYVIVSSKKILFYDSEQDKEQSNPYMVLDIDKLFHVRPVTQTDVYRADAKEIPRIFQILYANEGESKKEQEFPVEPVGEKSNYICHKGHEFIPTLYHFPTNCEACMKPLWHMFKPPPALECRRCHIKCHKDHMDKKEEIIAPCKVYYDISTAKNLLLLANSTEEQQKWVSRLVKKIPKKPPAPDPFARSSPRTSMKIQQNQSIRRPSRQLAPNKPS
Test [5] deals with CSNK1E (Homo sapiens, UniProt P49674).
CSNK1E, sequence (P49674 whole entry): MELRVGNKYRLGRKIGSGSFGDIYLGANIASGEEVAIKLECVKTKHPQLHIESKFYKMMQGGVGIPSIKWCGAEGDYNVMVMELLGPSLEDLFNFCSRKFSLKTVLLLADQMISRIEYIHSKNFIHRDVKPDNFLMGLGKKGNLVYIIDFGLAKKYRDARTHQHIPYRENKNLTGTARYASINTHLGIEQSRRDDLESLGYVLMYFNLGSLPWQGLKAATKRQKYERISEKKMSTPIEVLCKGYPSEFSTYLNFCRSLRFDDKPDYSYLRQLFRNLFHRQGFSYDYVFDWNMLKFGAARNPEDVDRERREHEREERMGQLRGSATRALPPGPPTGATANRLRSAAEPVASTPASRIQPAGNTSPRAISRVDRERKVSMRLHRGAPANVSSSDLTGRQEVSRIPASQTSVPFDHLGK
The target in test [6] is PIK3CA(E545K) (Homo sapiens, UniProt P42336, E545K).
For test [7], the target named is T2, BRSK2 (Homo sapiens, UniProt Q8IWQ3).
T2 sequence (Q8IWQ3 1-736): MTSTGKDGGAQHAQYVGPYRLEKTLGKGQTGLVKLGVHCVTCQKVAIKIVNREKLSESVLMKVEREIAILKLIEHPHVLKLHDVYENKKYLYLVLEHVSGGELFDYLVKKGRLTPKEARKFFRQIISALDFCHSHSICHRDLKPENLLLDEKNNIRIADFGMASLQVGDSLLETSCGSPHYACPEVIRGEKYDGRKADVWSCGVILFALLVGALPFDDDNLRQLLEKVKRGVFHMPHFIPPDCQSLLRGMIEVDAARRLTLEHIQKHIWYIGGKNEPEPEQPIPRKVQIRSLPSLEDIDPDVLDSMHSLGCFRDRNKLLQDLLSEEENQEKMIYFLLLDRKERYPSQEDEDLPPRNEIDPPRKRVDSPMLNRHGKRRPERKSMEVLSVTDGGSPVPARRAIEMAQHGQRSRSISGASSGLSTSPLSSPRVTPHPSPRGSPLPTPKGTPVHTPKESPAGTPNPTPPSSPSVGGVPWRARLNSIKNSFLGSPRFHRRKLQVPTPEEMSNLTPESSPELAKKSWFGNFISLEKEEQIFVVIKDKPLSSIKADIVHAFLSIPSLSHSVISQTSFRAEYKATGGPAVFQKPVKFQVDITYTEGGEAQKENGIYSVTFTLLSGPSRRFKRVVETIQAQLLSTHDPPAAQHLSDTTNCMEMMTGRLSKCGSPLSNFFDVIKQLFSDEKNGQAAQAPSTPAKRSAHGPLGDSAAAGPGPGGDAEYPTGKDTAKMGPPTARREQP

The target in test [8] is T3, RIPK1 (Homo sapiens, UniProt Q13546).
T3 sequence (Q13546 1-671): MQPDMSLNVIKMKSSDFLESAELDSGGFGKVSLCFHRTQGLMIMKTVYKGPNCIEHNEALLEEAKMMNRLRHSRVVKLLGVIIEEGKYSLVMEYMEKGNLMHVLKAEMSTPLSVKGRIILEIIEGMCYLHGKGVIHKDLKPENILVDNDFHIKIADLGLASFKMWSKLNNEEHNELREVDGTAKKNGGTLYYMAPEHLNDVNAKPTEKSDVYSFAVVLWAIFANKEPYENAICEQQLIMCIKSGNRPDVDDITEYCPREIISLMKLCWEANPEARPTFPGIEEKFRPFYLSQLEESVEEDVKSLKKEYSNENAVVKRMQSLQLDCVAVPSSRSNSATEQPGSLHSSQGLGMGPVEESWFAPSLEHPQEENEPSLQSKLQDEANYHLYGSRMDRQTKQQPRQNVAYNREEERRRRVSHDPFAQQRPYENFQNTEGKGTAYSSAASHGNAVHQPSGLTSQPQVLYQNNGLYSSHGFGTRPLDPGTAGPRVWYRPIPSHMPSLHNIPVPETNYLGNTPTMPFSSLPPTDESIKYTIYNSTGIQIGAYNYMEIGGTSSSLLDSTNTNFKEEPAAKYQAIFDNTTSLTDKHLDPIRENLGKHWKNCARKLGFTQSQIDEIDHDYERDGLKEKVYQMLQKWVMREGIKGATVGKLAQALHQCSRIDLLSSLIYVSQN

Test [9] has as its target FGFR2 (Homo sapiens, UniProt P21802).
The target in test [10] is IRAK1 (Homo sapiens, UniProt P51617).
IRAK1, sequence (P51617 whole entry): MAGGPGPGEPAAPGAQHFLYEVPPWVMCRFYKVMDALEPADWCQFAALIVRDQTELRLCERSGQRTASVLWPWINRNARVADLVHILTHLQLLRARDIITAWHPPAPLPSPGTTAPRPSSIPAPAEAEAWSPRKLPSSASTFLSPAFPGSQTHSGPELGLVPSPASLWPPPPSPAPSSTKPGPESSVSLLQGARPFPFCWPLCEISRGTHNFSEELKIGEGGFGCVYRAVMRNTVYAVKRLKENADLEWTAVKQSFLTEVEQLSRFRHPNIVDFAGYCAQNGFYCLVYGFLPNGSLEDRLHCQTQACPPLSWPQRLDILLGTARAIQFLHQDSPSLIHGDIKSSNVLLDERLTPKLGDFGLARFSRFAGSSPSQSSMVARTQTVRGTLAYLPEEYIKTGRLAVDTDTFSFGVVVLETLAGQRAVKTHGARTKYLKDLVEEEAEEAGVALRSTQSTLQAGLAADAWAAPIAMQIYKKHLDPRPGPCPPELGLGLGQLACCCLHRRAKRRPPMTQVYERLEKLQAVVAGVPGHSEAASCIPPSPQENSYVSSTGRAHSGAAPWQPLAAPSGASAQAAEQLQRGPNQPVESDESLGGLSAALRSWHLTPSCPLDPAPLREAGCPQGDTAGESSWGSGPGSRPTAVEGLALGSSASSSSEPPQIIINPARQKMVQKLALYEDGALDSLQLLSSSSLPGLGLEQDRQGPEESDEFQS
Setting [11] is: read-out: Percent control / Tirabrutinib.
The mark [12] stands for this setting: read-out: Percent control / Acalabrutinib.
Setting [13] is: read-out: Percent control / Ibrutinib.
Where [14] appears, read: read-out: Percent control / Zanubrutinib.

FGFR2, sequence (P21802 whole entry): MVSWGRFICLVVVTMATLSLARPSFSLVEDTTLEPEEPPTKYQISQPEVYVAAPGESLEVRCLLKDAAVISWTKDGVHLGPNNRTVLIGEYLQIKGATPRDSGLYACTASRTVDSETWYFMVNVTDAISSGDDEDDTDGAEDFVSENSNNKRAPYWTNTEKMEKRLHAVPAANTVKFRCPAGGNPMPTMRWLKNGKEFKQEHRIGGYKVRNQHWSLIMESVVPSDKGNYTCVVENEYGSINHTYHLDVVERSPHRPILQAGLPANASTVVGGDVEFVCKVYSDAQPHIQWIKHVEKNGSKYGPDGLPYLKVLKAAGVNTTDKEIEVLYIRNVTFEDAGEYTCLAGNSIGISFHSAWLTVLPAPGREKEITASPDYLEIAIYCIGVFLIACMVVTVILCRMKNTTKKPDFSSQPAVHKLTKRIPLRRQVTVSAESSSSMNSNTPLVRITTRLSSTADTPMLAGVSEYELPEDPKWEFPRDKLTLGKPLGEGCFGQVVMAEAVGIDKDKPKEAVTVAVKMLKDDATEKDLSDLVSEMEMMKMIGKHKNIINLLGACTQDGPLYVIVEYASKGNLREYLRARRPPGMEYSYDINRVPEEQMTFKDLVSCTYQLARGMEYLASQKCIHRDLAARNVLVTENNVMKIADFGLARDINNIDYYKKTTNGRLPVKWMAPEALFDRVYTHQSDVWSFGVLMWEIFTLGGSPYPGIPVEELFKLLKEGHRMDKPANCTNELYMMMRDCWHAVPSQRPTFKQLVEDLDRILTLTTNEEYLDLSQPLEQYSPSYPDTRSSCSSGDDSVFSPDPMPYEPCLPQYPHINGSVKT

With `CC#CC(=O)N1CC[C@@H](n2c(=O)n(-c3ccc(Oc4ccccc4)cc3)c3c(N)ncnc32)C1` [Tirabrutinib], the remaining binding at 0.3 µM in test [1] (setting [11]) came to 83%; in [2] (setting [11]), 57%; in test [3] (setting [11]), 94%; in test [4] (setting [11]) it was 90%; in test [5] (setting [11]) it was 95%; in [6] (setting [11]), 78%.

For the compound `CC#CC(=O)N1CCC[C@H]1c1nc(-c2ccc(C(=O)Nc3ccccn3)cc2)c2c(N)nccn12` [Acalabrutinib], the remaining binding at 0.3 µM in test [1] (setting [12]) worked out at 93%; in [2] (setting [12]), 94%; in [3] (setting [12]), 96%; in [4] (setting [12]), 94%; in [7] (setting [12]), 94%; in test [8] (setting [12]), 93%. The remaining binding at 0.3 µM in test [5] (setting [12]) stood at 89%; in test [6] (setting [12]), 99%; in test [9] (setting [12]), 88%; in [10] (setting [12]) it was 90%.

For the compound `C=CC(=O)N1CCC[C@@H](n2nc(-c3ccc(Oc4ccccc4)cc3)c3c(N)ncnc32)C1` [Ibrutinib], the remaining binding at 0.3 µM in test [1] (setting [13]) amounted to 96%; in test [3] (setting [13]) it was 82%; in test [4] (setting [13]), 84%; in test [7] (setting [13]), 82%; in [8] (setting [13]), 93%; in [5] (setting [13]), 79%. The remaining binding at 0.3 µM in test [6] (setting [13]) was 75%; in [9] (setting [13]), 65%; in test [10] (setting [13]), 89%.

As to `C=CC(=O)N1CCC([C@@H]2CCNc3c(C(N)=O)c(-c4ccc(Oc5ccccc5)cc4)nn32)CC1` [Zanubrutinib], the remaining binding at 0.3 µM in [1] (setting [14]) amounted to 100%; in [2] (setting [14]) it was 96%; in test [4] (setting [14]), 85%; in test [7] (setting [14]), 81%; in test [8] (setting [14]), 97%; in [9] (setting [14]), 93%. In test [10] (setting [14]), the remaining binding at 0.3 µM came to 100%.
